Reference: patent US5591741A, “Fungicidal spiroheterocyclic derivatives” (American Cyanamid Company, priority 1993, dated 1997)

Tests used:
[1] = tested on: Botrytis cinerea; assay: Direct protectant activity against broad bean grey mould (BCB); assay type: in vivo; conditions: direct protectant foliar spray, 600 ppm, 4 days
Procedure: (c) Direct protectant activity against broad bean grey mould (Botrytis cinerea; BCB) The test is a direct protectant foliar spray. The upper surfaces of leaves of broad bean plants with two leaf pairs (cv The Sutton) are sprayed with the test compound at a dosage of 600 ppm using an automated sprayline as described under (a). 24 hours after spraying the leaves are inoculated with an aqueous suspension containing 10^6 conidia/ml. For 4 days after inoculation plants are kept in a high humidity compartment at 22° C. Disease is assessed 4 days after inoculation, based on the percentage of leaf surface area covered by lesions. The extent of disease control in all the above tests is expressed as a rating compared with either an untreated control or a diluent-sprayed-control, according to the criteria: […]

[2] = tested on: Plasmopara viticola; assay: Antisporulant activity against vine downy mildew (PVA); assay type: in vivo; conditions: vine leaves, antisporulant foliar spray, 600 ppm, 750 l/ha
Procedure: (a) Antisporulant activity against vine downy mildew (Plasmopara viticola; PVA) The test is a direct antisporulant one using a foliar spray. The lower surfaces of leaves of whole vine plants (cv Cabernet Sauvignon), approximately 8 cm high, are inoculated by spraying with an aqueous suspension containing 5×10^4 zoosporangia/ml. The inoculated plants are kept for 24 hours at 21° C. in a high humidity compartment, then 24 hours at glasshouse ambient temperature and humidity. Infected leaves are sprayed on their lower surfaces with a solution of active material in 1:1 water/acetone containing 0.04% "TWEEN 20" (Trade Mark; a polyoxyethylene sorbitan ester surfactant). Plants are treated using an automated sprayline with an atomising nozzle. The concentration of the compound is 600 ppm, and the spray volume is 750 l/ha. After spraying, the plants are returned to normal glasshouse conditions for 96 hours and are then transferred to the high humidity compartment for 24 hours to induce sporulation. Assessment is based on the percentage of the leaf area covered by sporulation compared with that on control leaves. The extent of disease control in all the above tests is expressed as a rating compared with either an untreated control or a diluent-sprayed-control, according to the criteria: […]

[3] = tested on: Pyricularia oryzae; assay type: in vivo; conditions: rice seedlings, direct therapeutic foliar spray, 600 ppm, 4-5 days
[4] = tested on: Rhizoctonia solani; assay: Activity against Rhizoctonia in-vitro (RSI); assay type: cell-based; conditions: 10 ppm, 10 days, 20° C., mycelial growth
Procedure: (i) Activity against Rhizoctonia in-vitro (Rhizoctonia solani: RSI) This test measures the in-vitro activity of compounds against R. solani that causes stem and root rots. The test compound in acetone is added into 4 ml aliquots of half strength Potato Dextrose Broth dispensed in 25-compartment petri dishes to give final concentrations of 10 ppm. The fungal inoculum consists of mycelial fragments of R. solani growth in half strength PDB in shaken culture flasks and added to the broth to provide 5×10^4 fragments/ml broth. Petri dishes are incubated at 20° C. for 10 days until the assessment of mycelial growth. The extent of disease control in all the above tests is expressed as a rating compared with either an untreated control or a diluent-sprayed-control, according to the criteria: […]

[5] = tested on: Alternaria solani; assay: Activity against tomato early blight (AS); assay type: in vivo; conditions: Table VI; tomato seedlings, contact prophylactic foliar spray, 4 days
Procedure: b) Activity against tomato early blight (Alternaria solani; AS) This test measures the contact prophylactic activity of test compounds applied as a foliar spray. Tomato seedlings (cv Outdoor Girl) are grown to the stage at which the second true leaf is expanded. The plants are treated using an automated sprayline as described under (a). Test compounds are applied as solutions or suspensions in a mixture of acetone and water (50:50 v/v) containing 0.04% surfactant ("TWEEN 20"--Trade Mark). After drying the plants are kept for 24 hours in a glasshouse at 20° C. and 40% R.H., followed by inoculation of the leaf upper surfaces with a suspension of A. solani conidia containing 10^4 spores/ml. For 4 days after inoculation plants are kept moist in a humidity compartment at 21° C. Disease is assessed 4 days after inoculation, based on the percentage of leaf surface area covered by lesions when compared with control plants. The extent of disease control in all the above tests is expressed as a rating compared with either an untreated control or a diluent-sprayed-control, according to the criteria: […]

[6] = tested on: Erysiphe graminis f.sp. hordei; assay: Activity against barley powdery mildew, direct therapeutic (EGT); assay type: in vivo; conditions: direct therapeutic foliar spray, 600 ppm, up to 7 days
Procedure: (e) Activity against barley powdery mildew (Erysiphe graminis f.sp. hordei; EGT) The test is a direct therapeutic foliar spray. Leaves of barley seedlings, (cv. Golden Promise) at the single leaf stage are inoculated by dusting with mildew conidia one day prior to treatment with the test compound. The inoculated plants are kept overnight at glasshouse ambient temperature (18° C.) and humidity (40%) prior to treatment. The plants are sprayed with the test compound at a dosage of 600 ppm using an automated sprayline as described under (a). After drying, plants are returned to a compartment at 18° C. and 40% humidity for up to 7 days. Assessment is based on the percentage of leaf area covered by sporulation compared with that on leaves of control plants. The extent of disease control in all the above tests is expressed as a rating compared with either an untreated control or a diluent-sprayed-control, according to the criteria: […]

[7] = tested on: Pseudocercosporella herpotrichoides; assay: Activity against wheat eyespot in-vitro (PHI); assay type: cell-based; conditions: 10 ppm, 10 days, 20° C., mycelial growth
Procedure: (h) Activity against wheat eyespot in-vitro (Pseudocercosporella herpotrichoides; pHI) This test measures the in vitro activity of compounds against the fungus causing wheat eyespot. The test compound is dissolved or suspended in acetone and is added into 4 ml aliquots of half strength Potato Dextrose Broth (PDB) dispended in 25-compartment petri dishes to give a final concentration of 10ppm. The fungal inoculum consists of mycelial fragments of P. herpotrichoides grown in half strength PDB in shaken flasks and added to the broth to provide 5×10^4 fragments/ml broth. Petri dishes are incubated at 20° C. for 10 days until the assessment of mycelial growth. The extent of disease control in all the above tests is expressed as a rating compared with either an untreated control or a diluent-sprayed-control, according to the criteria: […]

[8] = tested on: Phytophthora infestans; assay type: in vivo; conditions: tomato, direct protectant foliar spray
[9] = tested on: Venturia inaequalis; assay: Activity against apple scab in-vitro (VII); assay type: cell-based; conditions: 10 ppm, 10 days, 20° C., mycelial growth
Procedure: (j) Activity against apple scab in-vitro (Venturia inaequalis: VII) This test measures the in-vitro activity of compounds against V. inaequalis that causes apple scab. The test compound in acetone is added into 4 ml aliquots of half strength Potato Dextrose Broth dispensed in 25-compartment petri dishes to give final concentrations of 10 ppm. The fungal inoculum consists of mycelial fragments and spores of V. inaequalis grown on malt agar and added to the broth to provide 5×10^4 propagules/ml broth. Petri dishes are incubated at 20° C. for 10 days until the assessment of mycelial growth. The extent of disease control in all the above tests is expressed as a rating compared with either an untreated control or a diluent-sprayed-control, according to the criteria: […]

[10] = tested on: Leptosphaeria nodorum; assay: Activity against wheat leafspot (LN); assay type: in vivo; conditions: direct therapeutic foliar spray, 600 ppm, 6-8 days
Procedure: (d) Activity against wheat leafspot (Leptosphaeria nodorum; LN.) The test is a direct therapeutic foliar spray. Leaves of wheat plants (cv Norman), at the single leaf stage, are inoculated by spraying with an aqueous suspension containing 1.5×10^6 conidia/ml. The inoculated plants are kept for 24 hours in a high humidity compartment prior to treatment. The plants are sprayed with a solution of the test compound at a dosage of 600 ppm using an automated sprayline as described under (a). After drying, the plants are kept for 6-8 days at 22° C. and moderate humidity (70%). Assessment is based on the density of lesions per leaf compared with that on leaves of control plants. The extent of disease control in all the above tests is expressed as a rating compared with either an untreated control or a diluent-sprayed-control, according to the criteria: […]

[11] = tested on: Erysiphe graminis f.sp. hordei; assay: Direct protectant activity against barley powdery mildew (EGP); assay type: in vivo; conditions: direct protectant foliar spray, 8 days
Procedure: (f) Direct protectant activity against barley powdery mildew (Erysiphe graminis f.sp. hordei; EGP) The test is a direct protectant foliar spray. Leaves of barley seedlings (cv Golden Promise) at the single leaf stage are sprayed with the test compound as described under (a). After drying, the plants are kept for 24 hours in a glasshouse at 18° C. and 40% R.H. Then the plants are inoculated by dusting with mildew conidia and kept at 18° C. and 40% R.H. for 8 days. Assessment is based on the percentage of leaf area covered by sporulation compared with that on leaves of control plants. The extent of disease control in all the above tests is expressed as a rating compared with either an untreated control or a diluent-sprayed-control, according to the criteria: […]

SMILES | disease control rating BCB [1] | disease control rating PVA [2] | disease control rating PO [3] | disease control rating RSI [4] | disease control rating AS [5] | disease control rating EGT [6] | disease control rating PHI [7] | disease control rating PIP [8] | disease control rating VII [9] | disease control rating LN [10] | disease control rating EGP [11]
CC(C)(C)C1CCC2(CC1)CC(O)(CNC1CCCCC1)CO2 (single isomer, unassigned) [Compound 213, 8-t-Butyl-3-cyclohexylaminomethyl-3-hydroxy-1-oxaspiro-(4,5)decane] | 2 (greater than 80% disease control) | 0 (less than 50% disease control) | 1 (about 50-80% disease control) | 0 (less than 50% disease control) | 2 (greater than 80% disease control) | 2 (greater than 80% disease control) | 0 (less than 50% disease control) | 2 (greater than 80% disease control) | 0 (less than 50% disease control) | 0 (less than 50% disease control) | 2 (greater than 80% disease control)
CC(C)(C)C1CCC2(CC1)CC(NCc1ccc(Cl)cc1)CO2 (stereo not shown) [Compound 1] | 0 (less than 50% disease control) | 0 (less than 50% disease control) | 0 (less than 50% disease control) | 0 (less than 50% disease control) | 0 (less than 50% disease control) | 2 (greater than 80% disease control) | 1 (about 50-80% disease control) | 0 (less than 50% disease control) | 0 (less than 50% disease control) | 0 (less than 50% disease control) | 
CCCCCCNC1COC2(CCC(C(C)(C)C)CC2)C1 (stereo not shown) [Compound 2] | 0 (less than 50% disease control) | 0 (less than 50% disease control) | 0 (less than 50% disease control) | 1 (about 50-80% disease control) | 0 (less than 50% disease control) | 2 (greater than 80% disease control) | 1 (about 50-80% disease control) | 0 (less than 50% disease control) | 0 (less than 50% disease control) | 0 (less than 50% disease control) | 
CC1CN(C2COC3(CCC(C(C)(C)C)CC3)C2)CC(C)O1 (stereo not shown) [Compound 3] | 0 (less than 50% disease control) | 0 (less than 50% disease control) | 0 (less than 50% disease control) | 0 (less than 50% disease control) | 0 (less than 50% disease control) | 1 (about 50-80% disease control) | 2 (greater than 80% disease control) | 0 (less than 50% disease control) | 2 (greater than 80% disease control) | 0 (less than 50% disease control) | 
CC1CCN(C2COC3(CCC(C(C)(C)CC(C)(C)C)CC3)C2)CC1 (stereo not shown) [Compound 135] | 0 (less than 50% disease control) | 0 (less than 50% disease control) | 0 (less than 50% disease control) | 2 (greater than 80% disease control) | 0 (less than 50% disease control) | 2 (greater than 80% disease control) | 2 (greater than 80% disease control) |  | 1 (about 50-80% disease control) | 1 (about 50-80% disease control) | 2 (greater than 80% disease control)
CC1CC(C)CN(C2COC3(CCC(C(C)(C)CC(C)(C)C)CC3)C2)C1 (stereo not shown) [Compound 136] | 0 (less than 50% disease control) | 0 (less than 50% disease control) | 0 (less than 50% disease control) | 2 (greater than 80% disease control) | 0 (less than 50% disease control) | 2 (greater than 80% disease control) | 2 (greater than 80% disease control) |  | 0 (less than 50% disease control) | 0 (less than 50% disease control) | 2 (greater than 80% disease control)
